Measured values as given in patent US20120101257A1, “PROCESSES FOR PREPARING AMINO-SUBSTITUTED GAMMA-LACTAMS” (UNIVERSITE DE MONTREAL, priority 2009, published 2012).
Each block holds one compound with its values, some of them ahead of it. *1 amine or outer side, *2 acyl side, *3 side chain or, on linkers, in order; H or OH if unused. Where a SMILES comes first, the peptide text is derived from it. [ ]: non-standard residue; d: D form. The star is where a group is joined. X12 = CC(C)C[C@@H](NC(=N)[C@@H](CCC(=O)O)N1C[C@H](N[*:1])CC1=O)C(=O)[*:2]; X13 = C[C@@H](O)[C@H](C(=O)[*:2])N1C[C@H](N[*:1])CC1=O; X11 = N[C@@H]1CCN([C@H](Cc2ccc(O)cc2)C(=O)*)C1=O; d(aThr) = C[C@@H](O)[C@@H](N)C(=O)O

What was measured:
TF-1 cells = assay: [3H]thymidine incorporation, IL-1 induced TF-1 cell proliferation; type: cell-based, human; details: for percentage of proliferation of TF-1 cells pre-treated with peptide: IL-1 induced, [3H]thymidine incorporation as in Example 59
Experimental: Human TF-1 cells (5×10^4 cells/well) were cultured in complete RPMI medium (GIBCO RPMI Medium 1640, Invitrogen) supplemented with GM-CSF (Granulocyte Macrophage Colony Stimulating Factor, 2 ng/ml; BD Biosource). Cells were deprived of growth factors for 18 h before preincubation with lactam peptide (1 μM) followed by treatment with IL-1β (10 or 25 ng/mL). After 24 h incubation at 37° C., [^3H]thymidine (1 μCi/mL; Amersham) was added and the cells were incubated for another 24 h. Cells were harvested, washed two times with PBS (10 mM Na2HPO4, 2 mM KH2PO4, 137 mM NaCl, 2.7 mM KCl; pH 7.4) and lysed with a 0.1 N NaOH/0.1% Triton X-100 solution. Scintillation cocktail (Fisher Scientific, 8 mL/sample) was added to the lysate, and after 3 h, radioactivity was measured (Beckman Multi-Purpose Scintillation Coulter Counter LS6500). Results were analyzed by one- or two-way ANOVA factoring for concentration or treatments. Postanova comparisons among means were performed using the Tukey-Framer method. Statistical significance was set at p<0.05. Data are presented as mean±SEM.

[1] = lactam peptide 1 μM, IL-1β 10 or 25 ng/mL

melting point: 138 to 140 °C
Compound: COC(=O)C[C@H]1COS(=O)(=O)N1C(=O)OCC1c2ccccc2-c2ccccc21 [(4S)-17, (4S)-Methyl-2-[3-(9-fluorenylmethoxycarbonyl)-2,2-dioxo-1,2,3-oxathiazolidin-4-yl]acetate]

Compound: CC(C)C[C@@H](NC(=O)[C@@H](CCC(=O)O)NC(=O)[C@H](NC(=O)[C@H](NC(=O)[C@@H](Cc1ccc(O)cc1)N1CC[C@@H](N)C1=O)[C@@H](C)O)C(C)C)C(=O)N[C@H](C)C(N)=O [Compound 54, (R)-Agl-D-Tyr-D-Thr-D-Val-D-Glu-D-Leu-D-Ala-NH2] (X11-[d(aThr)][dV][dE][dL][dA]-NH2)
increase in efficacy compared to 101.10, inhibition of IL-1 induced TF-1 proliferation (TF-1 cells; [1]): 2.2 fold

Compound: CC(C)C[C@@H](NC(=O)[C@@H](CCC(=O)O)NC(=O)[C@@H](C(C)C)N1CC[C@@H](NC(=O)[C@@H](Cc2ccc(O)cc2)NC(=O)[C@H](N)CCCNC(=N)N)C1=O)C(=O)N[C@H](C)C(N)=O [Compound 56, D-Arg-D-Tyr-(R)-Agl-D-Val-D-Glu-D-Leu-D-Ala-NH2]
inhibition of IL-1 induced TF-1 proliferation (in words) (TF-1 cells; [1]): failed to block proliferation

Compound: CC(C)C[C@@H](NC(=O)[C@@H](CCC(=O)O)NC(=O)[C@H](NC(=O)[C@@H]([C@@H](C)O)N1C[C@H](NC(=O)[C@H](N)CCCNC(=N)N)CC1=O)C(C)C)C(=O)N[C@H](C)C(N)=O [Compound 76, D-Arg-(R)-Bgl-D-Thr-D-Val-D-Glu-D-Leu-D-Ala-NH2] (H-[dR][X13][dV][dE][dL][dA]-NH2)
increase in efficacy compared to 101.10, inhibition of IL-1 induced TF-1 proliferation (TF-1 cells; [1]): 1.7 fold

Compound: CC(C)C[C@@H](NC(=N)[C@@H](CCC(=O)O)N1C[C@H](NC(=O)[C@H](NC(=O)[C@@H](Cc2ccc(O)cc2)NC(=O)[C@H](N)CCCNC(=N)N)[C@@H](C)O)CC1=O)C(=O)N[C@H](C)C(N)=O [Compound 78, D-Arg-D-Tyr-D-Thr-(R)-Bgl-D-Glu-D-Leu-D-Ala-NH2] (H-[dR][dY][d(aThr)][X12][dA]-NH2)
increase in efficacy compared to 101.10, inhibition of IL-1 induced TF-1 proliferation (TF-1 cells; [1]): 2.4 fold

Compound: D-Arg-D-Tyr-(S)-Agl-D-Val-D-Glu-D-Leu-D-Ala-NH2 [Compound 93]
percentage of proliferation of TF-1 cells pre-treated with peptide (TF-1 cells): 150%

Compound: D-Arg-D-Tyr-D-Thr-(S)-Agl-D-Glu-D-Leu-D-Ala-NH2 [Compound 94]
percentage of proliferation of TF-1 cells pre-treated with peptide (TF-1 cells): 132%
